molecular target: T1, chimeric human H3 receptor (Homo sapiens, UniProt Q9Y5N1); experiment: Chimeric human H3 receptor screening GTP binding assay (inhibition of histamine-stimulated GTP-gamma35S binding, Example 8); assay type: biochemical; conditions: 1 h; assay of Example 8; symbol "!" in column headed Ki; read-out: percent inhibition of agonist-induced GTP-gammaS binding to H3
T1 construct: rat Galpha-i2 (Gnai2, rat); made in house; host or cells: Sf9 insect cells (baculovirus); P2 membranes
Summary of the method: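 Compound tested at 4 μM against 1 μM histamine stimulation; 125 pM GTP-gamma35S binding measured by filtration and scintillation after 60 min at room temperature. Membranes from Sf9 cells expressing chimeric human H3 plus G-protein subunits, in Tris pH 7.4/NaCl/MgCl2/GDP buffer; values are % inhibition after nonspecific subtraction.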

T1 sequence (Q9Y5N1 with tags, fused parts or gaps): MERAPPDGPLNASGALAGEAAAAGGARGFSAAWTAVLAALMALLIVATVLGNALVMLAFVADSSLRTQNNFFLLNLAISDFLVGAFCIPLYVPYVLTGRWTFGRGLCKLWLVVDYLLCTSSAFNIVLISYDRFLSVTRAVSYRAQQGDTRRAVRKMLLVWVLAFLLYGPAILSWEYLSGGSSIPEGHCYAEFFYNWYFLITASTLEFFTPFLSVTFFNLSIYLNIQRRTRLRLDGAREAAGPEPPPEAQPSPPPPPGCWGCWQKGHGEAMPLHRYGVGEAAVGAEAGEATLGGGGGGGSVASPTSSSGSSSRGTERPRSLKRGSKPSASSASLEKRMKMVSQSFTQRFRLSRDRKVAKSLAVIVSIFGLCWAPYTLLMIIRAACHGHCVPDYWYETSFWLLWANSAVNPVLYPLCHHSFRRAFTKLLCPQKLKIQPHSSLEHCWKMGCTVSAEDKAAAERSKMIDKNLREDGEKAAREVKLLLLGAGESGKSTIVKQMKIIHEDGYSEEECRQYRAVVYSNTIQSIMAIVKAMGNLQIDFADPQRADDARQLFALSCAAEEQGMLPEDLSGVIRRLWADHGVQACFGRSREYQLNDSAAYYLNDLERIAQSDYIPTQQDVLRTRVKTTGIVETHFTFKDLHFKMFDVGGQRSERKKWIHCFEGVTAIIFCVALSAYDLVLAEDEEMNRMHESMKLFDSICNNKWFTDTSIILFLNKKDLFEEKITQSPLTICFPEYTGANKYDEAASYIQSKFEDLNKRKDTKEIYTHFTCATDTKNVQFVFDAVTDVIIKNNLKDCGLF

Inhibition at 4 µM, ≥ 90%:
O=C(C1CCC1)N1CCc2cnc(N3CCN(C4CCC4)CC3)nc2CC1 [Compound 216, 7-(cyclobutylcarbonyl)-2-(4-cyclobutylpiperazin-1-yl)-6,7,8,9-tetrahydro-5H-pyrimido[4,5-d]azepine]
O=C(C1CCCC1)N1CCc2cnc(N3CCN(C4CCC4)CC3)nc2CC1 [Compound 217, 2-(4-cyclobutylpiperazin-1-yl)-7-(cyclopentylcarbonyl)-6,7,8,9-tetrahydro-5H-pyrimido[4,5-d]azepine]
O=C(C1CCCCC1)N1CCc2cnc(N3CCN(C4CCC4)CC3)nc2CC1 [Compound 218, 2-(4-cyclobutylpiperazin-1-yl)-7-(cyclohexylcarbonyl)-6,7,8,9-tetrahydro-5H-pyrimido[4,5-d]azepine]
O=C(C1CCCCCC1)N1CCc2cnc(N3CCN(C4CCC4)CC3)nc2CC1 [Compound 219, 2-(4-cyclobutylpiperazin-1-yl)-7-(cycloheptylcarbonyl)-6,7,8,9-tetrahydro-5H-pyrimido[4,5-d]azepine]
O=C(C1CCCO1)N1CCc2cnc(N3CCN(C4CCC4)CC3)nc2CC1 (centres unmarked) [Compound 220, 2-(4-cyclobutylpiperazin-1-yl)-7-(tetrahydrofuran-2-ylcarbonyl)-6,7,8,9-tetrahydro-5H-pyrimido[4,5-d]azepine]
O=C(C1CCOC1)N1CCc2cnc(N3CCN(C4CCC4)CC3)nc2CC1 (centres unmarked) [Compound 221, 2-(4-cyclobutylpiperazin-1-yl)-7-(tetrahydrofuran-3-ylcarbonyl)-6,7,8,9-tetrahydro-5H-pyrimido[4,5-d]azepine]
CC(C)C(=O)N1CCc2cnc(N3CCN(C4CCC4)CC3)nc2CC1 [Compound 222, 2-(4-cyclobutylpiperazin-1-yl)-7-isobutyryl-6,7,8,9-tetrahydro-5H-pyrimido[4,5-d]azepine]
CCC(C)C(=O)N1CCc2cnc(N3CCN(C4CCC4)CC3)nc2CC1 (centres unmarked) [Compound 223, 2-(4-cyclobutylpiperazin-1-yl)-7-(2-methylbutanoyl)-6,7,8,9-tetrahydro-5H-pyrimido[4,5-d]azepine]
CCCC(C)C(=O)N1CCc2cnc(N3CCN(C4CCC4)CC3)nc2CC1 (centres unmarked) [Compound 224, 2-(4-cyclobutylpiperazin-1-yl)-7-(2-methylpentanoyl)-6,7,8,9-tetrahydro-5H-pyrimido[4,5-d]azepine]
O=C(/C=C/c1ccccc1)N1CCc2cnc(N3CCN(C4CCC4)CC3)nc2CC1 [Compound 225, 2-(4-cyclobutylpiperazin-1-yl)-7-[(2E)-3-phenylprop-2-enoyl]-6,7,8,9-tetrahydro-5H-pyrimido[4,5-d]azepine]
COc1ccc(C(=O)N2CCc3cnc(N4CCN(C5CCC5)CC4)nc3CC2)cc1Cl [Compound 226, 7-(3-chloro-4-methoxybenzoyl)-2-(4-cyclobutylpiperazin-1-yl)-6,7,8,9-tetrahydro-5H-pyrimido[4,5-d]azepine]
Cc1ccc(C)c(C(=O)N2CCc3cnc(N4CCN(C5CCC5)CC4)nc3CC2)c1 [Compound 227, 2-(4-cyclobutylpiperazin-1-yl)-7-(2,5-dimethylbenzoyl)-6,7,8,9-tetrahydro-5H-pyrimido[4,5-d]azepine]
COCCOCC(=O)N1CCc2cnc(N3CCN(C4CCC4)CC3)nc2CC1 [Compound 228, 2-(4-cyclobutylpiperazin-1-yl)-7-[(2-methoxyethoxy)acetyl]-6,7,8,9-tetrahydro-5H-pyrimido[4,5-d]azepine]
c1ccc(CN2CCc3cnc(N4CCN(C5CCC5)CC4)nc3CC2)cc1 [Compound 229, 7-benzyl-2-(4-cyclobutylpiperazin-1-yl)-6,7,8,9-tetrahydro-5H-pyrimido[4,5-d]azepine]

Reference: patent US20080051387A1, “TETRAHYDROPYRIDO[3,4-D]PYRIMIDINES AND RELATED ANALOGUES” (priority 2006, published 2008)
